According to PubChem BioAssay (NCI):
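Each compound was tested at five concentrations against cells in 96-well plates for 48 hours. Here, GI50 denotes the concentration required for 50% inhibition of growth. TGI denotes the concentration required for complete inhibition of growth.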

Legend:
Experiment in all cases: DTP human tumour cell line panel, 48 h
786-0 renal = test system: 786-0 renal
A498 renal = test system: A498 renal
A549 NSCLC = test system: A549 NSCLC
ACHN renal = test system: ACHN renal
CAKI-1 renal = test system: CAKI-1 renal
CCRF-CEM leukemia = test system: CCRF-CEM leukemia
COLO 205 colon = test system: COLO 205 colon
DU-145 prostate = test system: DU-145 prostate
EKVX NSCLC = test system: EKVX NSCLC
HCC-2998 colon = test system: HCC-2998 colon
HCT-116 colon = test system: HCT-116 colon
HCT-15 colon = test system: HCT-15 colon
HL-60(TB) leukemia = test system: HL-60(TB) leukemia
HOP-62 NSCLC = test system: HOP-62 NSCLC
HS 578T breast = test system: HS 578T breast
HT29 colon = test system: HT29 colon
IGROV1 ovarian = test system: IGROV1 ovarian
K-562 leukemia = test system: K-562 leukemia
KM12 colon = test system: KM12 colon
LOX IMVI melanoma = test system: LOX IMVI melanoma
M14 melanoma = test system: M14 melanoma
MALME-3M melanoma = test system: MALME-3M melanoma
MCF7 breast = test system: MCF7 breast
MDA-MB-231 breast = test system: MDA-MB-231 breast
MDA-MB-435 = test system: MDA-MB-435
MDA-N = test system: MDA-N
MOLT-4 leukemia = test system: MOLT-4 leukemia
NCI-H226 lung = test system: NCI-H226 lung
NCI-H23 lung = test system: NCI-H23 lung
NCI-H460 lung = test system: NCI-H460 lung
NCI-H522 lung = test system: NCI-H522 lung
NCI/ADR-RES ovarian = test system: NCI/ADR-RES ovarian
OVCAR-3 ovarian = test system: OVCAR-3 ovarian
OVCAR-4 ovarian = test system: OVCAR-4 ovarian
OVCAR-5 ovarian = test system: OVCAR-5 ovarian
OVCAR-8 ovarian = test system: OVCAR-8 ovarian
PC-3 prostate = test system: PC-3 prostate
RPMI-8226 leukemia = test system: RPMI-8226 leukemia
RXF 393 renal = test system: RXF 393 renal
SF-268 CNS = test system: SF-268 CNS
SF-295 CNS = test system: SF-295 CNS
SF-539 CNS = test system: SF-539 CNS
SK-MEL-2 melanoma = test system: SK-MEL-2 melanoma
SK-MEL-28 melanoma = test system: SK-MEL-28 melanoma
SK-MEL-5 melanoma = test system: SK-MEL-5 melanoma
SK-OV-3 ovarian = test system: SK-OV-3 ovarian
SN12C renal = test system: SN12C renal
SNB-19 CNS = test system: SNB-19 CNS
SNB-75 CNS = test system: SNB-75 CNS
SR leukemia = test system: SR leukemia
SW-620 colon = test system: SW-620 colon
T-47D breast = test system: T-47D breast
TK-10 renal = test system: TK-10 renal
U251 CNS = test system: U251 CNS
UACC-257 melanoma = test system: UACC-257 melanoma
UACC-62 melanoma = test system: UACC-62 melanoma
UO-31 renal = test system: UO-31 renal
BT-549 breast = test system: BT-549 breast
HOP-92 NSCLC = test system: HOP-92 NSCLC

O=C1Oc2ccccc2C(=O)/C1=C/N1C(=O)/C(=C/c2ccc3c(c2)OCO3)SC1=S
TGI (786-0 renal): > 54.8 µM
TGI (A498 renal): 13.2 µM
TGI (A549 NSCLC): 35.4 µM
TGI (ACHN renal): 28.1 µM
TGI (CAKI-1 renal): 36.5 µM
TGI (CCRF-CEM leukemia): > 61.3 µM
TGI (COLO 205 colon): 36.6 µM
TGI (DU-145 prostate): 49.1 µM
TGI (EKVX NSCLC): > 100 µM
TGI (HCC-2998 colon): 28.9 µM
TGI (HCT-116 colon): > 51.2 µM
TGI (HCT-15 colon): 33.2 µM
TGI (HL-60(TB) leukemia): > 64.4 µM
TGI (HOP-62 NSCLC): 24.4 µM
TGI (HS 578T breast): 14.9 µM
TGI (HT29 colon): 35.9 µM
TGI (IGROV1 ovarian): 37.2 µM
TGI (K-562 leukemia): 35.7 µM
TGI (KM12 colon): 32 µM
TGI (LOX IMVI melanoma): > 58.8 µM
TGI (M14 melanoma): 31.9 µM
TGI (MALME-3M melanoma): 44.8 µM
TGI (MCF7 breast): > 58.4 µM
TGI (MDA-MB-231 breast): 44 µM
TGI (MDA-MB-435): 39.7 µM
TGI (MDA-N): 77.7 µM
TGI (MOLT-4 leukemia): 35.9 µM
TGI (NCI-H226 lung): 34.5 µM
TGI (NCI-H23 lung): 30.5 µM
TGI (NCI-H460 lung): 32.4 µM
TGI (NCI-H522 lung): 45.2 µM
TGI (NCI/ADR-RES ovarian): 48.4 µM
TGI (OVCAR-3 ovarian): 10.9 µM
TGI (OVCAR-4 ovarian): 47.9 µM
TGI (OVCAR-5 ovarian): 30.2 µM
TGI (OVCAR-8 ovarian): 40.9 µM
TGI (PC-3 prostate): 30.6 µM
TGI (RPMI-8226 leukemia): 38.3 µM
TGI (RXF 393 renal): 40.2 µM
TGI (SF-268 CNS): 32.6 µM
TGI (SF-295 CNS): 35 µM
TGI (SF-539 CNS): 26.7 µM
TGI (SK-MEL-2 melanoma): 34.2 µM
TGI (SK-MEL-28 melanoma): 36.8 µM
TGI (SK-MEL-5 melanoma): 29.8 µM
TGI (SK-OV-3 ovarian): 38.5 µM
TGI (SN12C renal): 51.6 µM
GI50 (SNB-19 CNS): 12.6 µM
TGI (SNB-19 CNS): 37.1 µM
TGI (SNB-75 CNS): 19.2 µM
TGI (SR leukemia): 31.4 µM
TGI (SW-620 colon): 43.5 µM
TGI (T-47D breast): 31 µM
GI50 (TK-10 renal): 10.1 µM
TGI (TK-10 renal): 22.7 µM
TGI (U251 CNS): 15 µM
TGI (UACC-257 melanoma): 51.5 µM
TGI (UACC-62 melanoma): > 47.7 µM
GI50 (UO-31 renal): 7.14 µM
TGI (UO-31 renal): 22.9 µM

Cc1cc(C(=O)Nc2nc3cccc(Cl)c3n2[C@@H]2CCCCN(C(=O)/C=C/CN(C)C)C2)ccn1
GI50 (786-0 renal): 3.78 µM
TGI (786-0 renal): 21.6 µM
GI50 (A498 renal): 0.514 µM
TGI (A498 renal): 14.1 µM
GI50 (A549 NSCLC): 6.37 µM
TGI (A549 NSCLC): 31.8 µM
GI50 (ACHN renal): 0.406 µM
TGI (ACHN renal): 16.3 µM
GI50 (BT-549 breast): 7.26 µM
TGI (BT-549 breast): 20.9 µM
GI50 (CAKI-1 renal): 0.58 µM
TGI (CAKI-1 renal): 17.2 µM
GI50 (CCRF-CEM leukemia): 12.5 µM
TGI (CCRF-CEM leukemia): 56.2 µM
GI50 (COLO 205 colon): 7.69 µM
TGI (COLO 205 colon): 22.4 µM
GI50 (DU-145 prostate): 6.19 µM
TGI (DU-145 prostate): 45.2 µM
GI50 (EKVX NSCLC): 0.518 µM
TGI (EKVX NSCLC): 18.7 µM
GI50 (HCC-2998 colon): 15.6 µM
TGI (HCC-2998 colon): 30.9 µM
GI50 (HCT-116 colon): 6.5 µM
TGI (HCT-116 colon): 19.5 µM
GI50 (HCT-15 colon): 4.42 µM
TGI (HCT-15 colon): 19.7 µM
GI50 (HL-60(TB) leukemia): 17 µM
TGI (HL-60(TB) leukemia): 38.3 µM
GI50 (HOP-62 NSCLC): 12.5 µM
TGI (HOP-62 NSCLC): 27.4 µM
GI50 (HOP-92 NSCLC): 6.94 µM
TGI (HOP-92 NSCLC): 32.2 µM
GI50 (HS 578T breast): 9.11 µM
TGI (HS 578T breast): 37.3 µM
GI50 (HT29 colon): 9.91 µM
TGI (HT29 colon): 30.2 µM
GI50 (IGROV1 ovarian): 0.634 µM
TGI (IGROV1 ovarian): 15.1 µM
GI50 (K-562 leukemia): 9.58 µM
TGI (K-562 leukemia): 61.5 µM
GI50 (KM12 colon): 9.43 µM
TGI (KM12 colon): 25.6 µM
GI50 (LOX IMVI melanoma): 10.1 µM
TGI (LOX IMVI melanoma): 23.9 µM
GI50 (M14 melanoma): 13.7 µM
TGI (M14 melanoma): 27.5 µM
GI50 (MALME-3M melanoma): 18.2 µM
TGI (MALME-3M melanoma): 34 µM
GI50 (MCF7 breast): 4.95 µM
TGI (MCF7 breast): 20.3 µM
GI50 (MDA-MB-231 breast): 13 µM
TGI (MDA-MB-231 breast): 28.1 µM
GI50 (MDA-MB-435): 9.49 µM
TGI (MDA-MB-435): 23.3 µM
GI50 (MOLT-4 leukemia): 7.13 µM
TGI (MOLT-4 leukemia): 33.3 µM
GI50 (NCI-H226 lung): 16.3 µM
TGI (NCI-H226 lung): 32.1 µM
GI50 (NCI-H23 lung): 12.9 µM
TGI (NCI-H23 lung): 38 µM
GI50 (NCI-H460 lung): 8.7 µM
TGI (NCI-H460 lung): 23.1 µM
GI50 (NCI-H522 lung): 0.108 µM
TGI (NCI-H522 lung): 14.4 µM
GI50 (NCI/ADR-RES ovarian): 5.37 µM
TGI (NCI/ADR-RES ovarian): 49 µM
GI50 (OVCAR-3 ovarian): 4.08 µM
TGI (OVCAR-3 ovarian): 18.4 µM
GI50 (OVCAR-4 ovarian): 7.18 µM
TGI (OVCAR-4 ovarian): 26.4 µM
GI50 (OVCAR-5 ovarian): 17.7 µM
TGI (OVCAR-5 ovarian): 47.6 µM
GI50 (OVCAR-8 ovarian): 11.4 µM
TGI (OVCAR-8 ovarian): 40.3 µM
GI50 (PC-3 prostate): 9.22 µM
TGI (PC-3 prostate): 28.2 µM
GI50 (RPMI-8226 leukemia): 9.25 µM
TGI (RPMI-8226 leukemia): 32 µM
GI50 (RXF 393 renal): 9.35 µM
TGI (RXF 393 renal): 25.1 µM
GI50 (SF-268 CNS): 10.6 µM
TGI (SF-268 CNS): 28.3 µM
GI50 (SF-295 CNS): 13.9 µM
TGI (SF-295 CNS): 28.6 µM
GI50 (SF-539 CNS): 15.1 µM
TGI (SF-539 CNS): 29.5 µM
GI50 (SK-MEL-2 melanoma): 17.5 µM
TGI (SK-MEL-2 melanoma): 34.2 µM
GI50 (SK-MEL-28 melanoma): 12.8 µM
TGI (SK-MEL-28 melanoma): 27 µM
GI50 (SK-MEL-5 melanoma): 8.97 µM
TGI (SK-MEL-5 melanoma): 22.8 µM
GI50 (SK-OV-3 ovarian): 0.0792 µM
TGI (SK-OV-3 ovarian): 9.03 µM
GI50 (SN12C renal): 3.51 µM
TGI (SN12C renal): 22.2 µM
GI50 (SNB-19 CNS): 12.9 µM
TGI (SNB-19 CNS): 31.2 µM
GI50 (SNB-75 CNS): 5.63 µM
TGI (SNB-75 CNS): 19 µM
GI50 (SR leukemia): 11.3 µM
TGI (SR leukemia): 35.5 µM
GI50 (SW-620 colon): 14.6 µM
TGI (SW-620 colon): 31.5 µM
GI50 (T-47D breast): 1.5 µM
TGI (T-47D breast): 23.7 µM
GI50 (TK-10 renal): 1.07 µM
TGI (TK-10 renal): 16.4 µM
GI50 (U251 CNS): 11.2 µM
TGI (U251 CNS): 26 µM
GI50 (UACC-257 melanoma): 18.8 µM
TGI (UACC-257 melanoma): 34.1 µM
GI50 (UACC-62 melanoma): 15.3 µM
TGI (UACC-62 melanoma): 31.5 µM
GI50 (UO-31 renal): 2.71 µM
TGI (UO-31 renal): 20.3 µM
